# Results as given in PubChem BioAssay AID1259407 (Chemical Carcinogenesis Research Information System (CCRIS), 2018).
# The source made the active and inactive calls. No rule for the calls is given here.
# Tested on: CCRIS mutagenicity, Ames/micronucleus/aberration tests
# Test: CCRIS mutagenicity studies
# [1] = Test System: AMES SALMONELLA TYPHIMURIUM, Strain/Indicator: TA98, Metabolic Activation: NONE, Method: PREINCUBATION
# [2] = Test System: AMES SALMONELLA TYPHIMURIUM, Strain/Indicator: TA100, Metabolic Activation: NONE, Method: PREINCUBATION
# [3] = Test System: AMES SALMONELLA TYPHIMURIUM, Strain/Indicator: TA1535, Metabolic Activation: NONE, Method: PREINCUBATION
# [4] = Test System: AMES SALMONELLA TYPHIMURIUM, Strain/Indicator: TA1537, Metabolic Activation: NONE, Method: PREINCUBATION
compound,measurement,setting,value
COc1cccc([N+](=O)[O-])c1,mutagenic call,[1],inactive; negative
same,mutagenic call,"Test System: AMES SALMONELLA TYPHIMURIUM, Strain/Indicator: TA98, Metabolic Activation: RAT, LIVER, S-9, KANECHLOR 500, Method: PREINCUBATION",inactive; negative
same,mutagenic call,"Test System: AMES SALMONELLA TYPHIMURIUM, Strain/Indicator: TA98, Method: PREINCUBATION",inactive; negative
same,mutagenic call,[2],inactive; negative
same,mutagenic call,"Test System: AMES SALMONELLA TYPHIMURIUM, Strain/Indicator: TA100, Metabolic Activation: RAT, LIVER, S-9, KANECHLOR 500, Method: PREINCUBATION",inactive; negative
same,mutagenic call,"Test System: AMES SALMONELLA TYPHIMURIUM, Strain/Indicator: TA100, Method: PREINCUBATION",inactive; negative
same,mutagenic call,[3],inactive; negative
same,mutagenic call,"Test System: AMES SALMONELLA TYPHIMURIUM, Strain/Indicator: TA1535, Method: PREINCUBATION",inactive; negative
same,mutagenic call,[4],inactive; negative
same,mutagenic call,"Test System: AMES SALMONELLA TYPHIMURIUM, Strain/Indicator: TA1537, Method: PREINCUBATION",inactive; negative
same,mutagenic call,"Test System: AMES SALMONELLA TYPHIMURIUM, Strain/Indicator: TA1538, Metabolic Activation: NONE, Method: PREINCUBATION",inactive; negative
same,mutagenic call,"Test System: AMES SALMONELLA TYPHIMURIUM, Strain/Indicator: TA1538, Method: PREINCUBATION",inactive; negative
CCCCC1C(=O)N(c2ccccc2)N(c2ccccc2)C1=O,mutagenic call,"End Point: IN VITRO CHROMOSOMAL ABERRATIONS, Test System: CHINESE HAMSTER OVARY CELLS, Metabolic Activation: NONE",inactive; negative
same,mutagenic call,"End Point: IN VITRO CHROMOSOMAL ABERRATIONS, Test System: CHINESE HAMSTER OVARY CELLS, Metabolic Activation: RAT, LIVER, S-9, AROCLOR 1254",active; positive
same,mutagenic call,"Test System: AMES SALMONELLA TYPHIMURIUM, Strain/Indicator: TA97A, Metabolic Activation: NONE, Method: STANDARD PLATE",inactive; negative
same,mutagenic call,"Test System: AMES SALMONELLA TYPHIMURIUM, Strain/Indicator: TA97A, Metabolic Activation: RAT LIVER S-9, PHENOBARBITAL, Method: STANDARD PLATE",inactive; negative
same,mutagenic call,"Test System: AMES SALMONELLA TYPHIMURIUM, Strain/Indicator: TA98, Metabolic Activation: HAMSTER, LIVER, S-9, AROCLOR 1254, Method: PREINCUBATION",inactive; negative
same,mutagenic call,[1],inactive; negative
same,mutagenic call,"Test System: AMES SALMONELLA TYPHIMURIUM, Strain/Indicator: TA98, Metabolic Activation: NONE, Method: STANDARD PLATE",inactive; negative
same,mutagenic call,"Test System: AMES SALMONELLA TYPHIMURIUM, Strain/Indicator: TA98, Metabolic Activation: RAT LIVER S-9, PHENOBARBITAL, Method: STANDARD PLATE",inactive; negative
same,mutagenic call,"Test System: AMES SALMONELLA TYPHIMURIUM, Strain/Indicator: TA98, Metabolic Activation: RAT, LIVER, S-9, AROCLOR 1254, Method: PREINCUBATION",inactive; negative
same,mutagenic call,"Test System: AMES SALMONELLA TYPHIMURIUM, Strain/Indicator: TA100, Metabolic Activation: HAMSTER, LIVER, S-9, AROCLOR 1254, Method: PREINCUBATION",inactive; negative
same,mutagenic call,[2],inactive; negative
same,mutagenic call,"Test System: AMES SALMONELLA TYPHIMURIUM, Strain/Indicator: TA100, Metabolic Activation: NONE, Method: STANDARD PLATE",inactive; negative
same,mutagenic call,"Test System: AMES SALMONELLA TYPHIMURIUM, Strain/Indicator: TA100, Metabolic Activation: RAT LIVER S-9 PHENOBARBITAL, Method: STANDARD PLATE",inactive; negative
same,mutagenic call,"Test System: AMES SALMONELLA TYPHIMURIUM, Strain/Indicator: TA100, Metabolic Activation: RAT, LIVER, S-9, AROCLOR 1254, Method: PREINCUBATION",inactive; negative
same,mutagenic call,"Test System: AMES SALMONELLA TYPHIMURIUM, Strain/Indicator: TA102, Metabolic Activation: NONE, Method: STANDARD PLATE",inactive; negative
same,mutagenic call,"Test System: AMES SALMONELLA TYPHIMURIUM, Strain/Indicator: TA102, Metabolic Activation: RAT LIVER S-9, PHENOBARBITAL, Method: STANDARD PLATE",inactive; negative
same,mutagenic call,"Test System: AMES SALMONELLA TYPHIMURIUM, Strain/Indicator: TA1535, Metabolic Activation: HAMSTER, LIVER, S-9, AROCLOR 1254, Method: PREINCUBATION",inactive; negative
same,mutagenic call,[3],inactive; negative
same,mutagenic call,"Test System: AMES SALMONELLA TYPHIMURIUM, Strain/Indicator: TA1535, Metabolic Activation: RAT, LIVER, S-9, AROCLOR 1254, Method: PREINCUBATION",inactive; negative
same,mutagenic call,"Test System: AMES SALMONELLA TYPHIMURIUM, Strain/Indicator: TA1537, Metabolic Activation: HAMSTER, LIVER, S-9, AROCLOR 1254, Method: PREINCUBATION",inactive; negative
same,mutagenic call,[4],inactive; negative
same,mutagenic call,"Test System: AMES SALMONELLA TYPHIMURIUM, Strain/Indicator: TA1537, Metabolic Activation: RAT, LIVER, S-9, AROCLOR 1254, Method: PREINCUBATION",inactive; negative
same,mutagenic call,"Test System: MOUSE LYMPHOMA, Strain/Indicator: L5178Y (TK+/TK-), Metabolic Activation: NONE, Method: SUSPENSION/PLATE",active; positive
same,mutagenic call,"Test System: MOUSE LYMPHOMA, Strain/Indicator: L5178Y (TK+/TK-), Metabolic Activation: RAT, LIVER, S-9, AROCLOR 1254, Method: SUSPENSION/PLATE",active; positive
Cc1c2ccccc2cc2c3c(ccc12)[C@@H](O)[C@H](O)C=C3,mutagenic call,"Test System: CHINESE HAMSTER V-79, Strain/Indicator: V-79/8-AZAGUANINE, Metabolic Activation: NONE, Method: STANDARD PLATE",active; positive
O=[N+]([O-])[C-]1CCCC1,mutagenic call,[2],active; positive
same,mutagenic call,"Test System: AMES SALMONELLA TYPHIMURIUM, Strain/Indicator: TA100, Metabolic Activation: RAT, LIVER, S-9, AROCLOR, Method: PREINCUBATION",active; positive
same,mutagenic call,"Test System: AMES SALMONELLA TYPHIMURIUM, Strain/Indicator: TA102, Metabolic Activation: NONE, Method: PREINCUBATION",active; positive
same,mutagenic call,"Test System: AMES SALMONELLA TYPHIMURIUM, Strain/Indicator: TA102, Metabolic Activation: RAT, LIVER, S-9, AROCLOR, Method: PREINCUBATION",active; positive
